Where a SMILES comes first, the peptide text is derived from it. [ ]: non-standard residue; d: D form. Nle = CCCC[C@H](N)C(=O)O
Tests used:
[1] = system: araC-PBAD promoter dependent expression of GFPuv; assay: Induction of araC-PBAD GFPuv reporter in pBAD-GFPuv transformed JM109 bacteria, whole cell fluorescence; type: cell-based, E coli; details: MIDS = signal playback
Text: The reporter system for sugar sensing was obtained from a commercial supplier. In this system, bacteria are transformed with a plasmid that consists of the gene for AraC, which acts as an activator of the ara operon, and the gene for a variant green florescent protein, under the control of the PBAD promoter. L-arabinose specifically binds to araC and rapidly turns on transcription in a time dependent fashion reaching a maximum expression level within 3 hr as monitored by intact whole cell fluorescence of the expressed GFP. GFPuv expression is linear with dose over two logs of concentration of L-arabinose (1-500 uM).
The inherent (MIDS) emission signals of L and D-arabinose are obtained as detailed above, employing a 0.1 mM solution of L(+) Ara or D(+) Ara for signal recording, and the autocorrelation/FFT method for identifying optimized time-domain signals.
Transduction experiments were performed with two sets of coils. In the first system, a pair of coils consisting of 30 gauge aluminum wire was wound around a 3″ tall section of PVC core with 2⅝″ o.d., wound to 35× the number of windings of starting coils. These were place inside aluminum Faraday boxes 5½×4″×8¾″ (W×H×D) to isolate samples for crossover RF signals. Both boxes were placed upon the orbital shaker platform to aerate transducing cultures.
In the second set of three 4″ tall stock 4000-ft spools of 28G insulated copper wired with 1″ i.d. plastic cores were directly used as transduction coils (“Mega coils”) and two coils were driven with the MIDS signals, while the third control coil was driven by a random white noise generator. In this case, all three coils were isolated in Faraday boxes, and mounted separated by 2 ft on a 6-ft plank that was fitted to the orbital shaker. This ensured that all three samples were agitated at the same speed with one shaker. Thermistor temperature probes were also place into the core of each coil proximal to the sample to provide real-time reading of temperature. Both sets of MIDS signal coils were driven at the highest input voltage setting until their temperature equilibrated near 94-97° F. from resistive heating of the wound wire. Samples were centered in the core of the coil to experience the maximum and most uniform area of RF flux. (a limitation of the current set-up was the linkage of heating with driving voltages which control RF flux).
In a typical experiment, 1-3 drops of overnight cultures of pBAD-GFPuv transformed JM109 grown in Luria broth containing 100-500 ug/ml of sodium ampicillin (LB/amp) were used to seed 50 ml fresh LB/amp. This was well mixed and 10 ml transferred to 25-ml Erlenmeyer flasks, and 0.1 ml of 100× stocks of reference chemical inducers (D or L arabinose) were added to final concentrations desired. These seeded cultures were placed into either the transduction coils, or left on the shaker platform as controls. (Another limitation of the current set up is the availability of only one shaker table, forcing a choice between incubation at controlled above ambient temperature to match the coils but without agitation, or agitation simply at ambient temperature. Also the matching of the coil temperatures varies about 2-3° F. and cannot be precisely controlled or determined). In most cases the transductions were conducted as overnight incubations.
After transduction was stopped, 1.2 ml of bacterial cell culture suspension were transferred to 1.7 ml microcentrifuge tubes and centrifuge 1-2 mins at 12,000 rpm (10,000×rcg). Supernatant broth was removed, discarded and the bacterial pellets re-suspended in 1 ml of ice-cold PBS. Washed suspensions were centrifuged again, PBS wash discarded, pellets re-suspended in fresh PBS, transferred to cuvettes to measure OD600 nm, then volumes were adjusted to match cell density among samples.
For each of the studies reported here, % Relative=[(Fluor. of L(+)ara MIDS)−(Fluor. of D(−)ara MIDS)]
Induction (Fluor. of D(−) ara MIDS).

[2] = system: araC-PBAD promoter dependent expression of GFPuv; details: cited from earlier work
20S proteasome = biological target: T1, 20S proteasome (Homo sapiens, UniProt P28074); assay: 20S proteasome assay, cleavage of Suc-Leu-Leu-Val-Tyr-AMC (fluorescence); type: biochemical
T1 construct: purchased EMD Biosciences 539158
Text: The 20S proteasome enzyme is activated with a mild detergent (SDS). The cleavage of the substrate Suc-Leu-Leu-Val-Tyr-AMC by the activated enzyme liberates the fluorescent AMC molecules that can be monitored by exciting AMC at 380 nm and detecting the fluorescence at 460 nm. Proteosome activity is inhibited by phepropeptin D.
In a first study, the ability of phepropeptin D and a MIDS signal of phepropeptin D to inhibit proteosome activity, as measured by the appearance of conversion of the substrate Suc-Leu-Leu-Val-Tyr-AMC to yield a fluorescent signal were measured, following substantially the same methodology described above and in the examples.
The 20S Proteasome assay kit (EMD Biosciences Cat #539158) was adapted for use in a cuvette format with a final volume of 200 μl. Nine samples were set-up using the following procedure:
Reaction buffer (20×) was diluted, 100 μl with 880 μl of HPLC grade water and 20 μl of 100× activation buffer to a final volume of 1 ml.
100 μl of the diluted 2× reaction buffer was added to each of the no enzyme control tubes.
The 20S proteasome enzyme was added to the remaining solution, 3.2 μl to 800 μl of 2× reaction buffer and 100 μl added to each of 7 remaining tubes.
To each tube 100 μl of water or water and inhibitor were added.
In a separate tube 4 μl of the substrate was diluted with 96 μl of HPLC grade water and 10 μl/tube of the diluted substrate was added to each of the reaction tubes to obtain a final volume of 200 μl.
Samples were all mixed by repeated pipetting and the reactions incubated at 37 C for 2 hrs.
Fluorescence was quantiated and recorded using a fluorometer (Turner Designs, Sunnyvale, Calif.—Model TD-700).
In a follow-up study, samples were allowed to incubate at room temperature overnight to determine if the substrate would continue to be converted to the fluorescent product. […]

[3] = system: MDA-MB-435 human breast tumor; assay: MDA-MB-435 human breast tumor mouse xenograft; type: in vivo, athymic nude mice; details: day 36; outliers removed; taxol 15 mg/kg i.p. twice a wk; MIDS continuous playback
Procedure: Method: MIDS measurement was made in glass sample holders (Kimble autoinjector vials) on (1) neat solution of the preformulated taxol clinical vial, using a 1 ml tuberculin syringe, and 22G needle, to withdraw 0.7 ml from multidose vial (preserve sterility and integrity of solution, so don't syringe back in), then (2) this 0.7 ml taxol formulation will be used to dissolve additional 1 mg vials of taxol, to increase the amount of taxol relative to Cremophor®. The study was designed to evaluate the efficacy of a transduction technology to inhibit tumor growth in an in vivo human tumor mouse xenograft model, and to compare its effect to a standard chemotherapeutic treatment-taxol. 5 million MDA-MB-435 cells, in suspension, were subcutaneously injected into the flanks of athymic nude mice. Treatment began the same day of cell implant (Day 1). Animals were assigned to one of 4 groups. Each animal was monitored for tumor growth twice per week for the duration of the study. One group was treated with Taxol, Two groups were treated with transduction and one group was treated with the taxol vehicle to act as a control.
The mice were athymic nude mice nu/nu with a BALB/c background. Implanted with 5 million of breast cancer tumor line MDA-MB-435(NCI standard originally from the NCI) from American Culture Type Collection, ATCC (Rockville, Md.). […]

pea sprouts = assay: Sugar pea sprout stem length, inhibition by herbicide; type: in vivo; details: 72 hour, 37° C., 100% humidity; FIG. 31
Procedure: The optimized inherent (MIDS) emission signals of glyphosphate were obtained as described in Sections II and III above, using system equipment and protocols as detailed in Examples 1 and 2 below. In one experiment, an optimized glyphosphate MIDS signal was applied to pea sprouts supported on a moist medium, with signal application over a 72 hour period at 37° C., 100% humidity. Various controls included (1) no signal, (2), the chemical Roundup®, and (3) a white noise signal. Stem length was measured within a hour after exposure to the stimulus, and 5-50 sprouts were contained in each group.

[4] = Experiment 1, OD-matched cells, L(+) Ara 0.2 mM, D(−) Ara 1 mM
[5] = Experiment 2, L(+) ara 0.25 mM, D(−) ara 1 mM

SMILES	Fluorescence Average rfu [1, 4] [rfu]	Fluorescence rfu1 [1, 4] [rfu]	Fluorescence rfu2 [1, 4] [rfu]	Fluorescence rfu3 [1, 4] [rfu]	Fluorescence Average rfu [1, 5] [rfu]	Fluorescence rfu1 [1, 5] [rfu]	Fluorescence rfu2 [1, 5] [rfu]	Fluorescence rfu3 [1, 5] [rfu]	further results
O=C[C@@H](O)[C@H](O)[C@H](O)CO [D(−) Ara, D(−)-arabinose]	297.7	297.6	297.8	297.7	226.5	226.7	226.7	226.1	binding of araC and activation of genes downstream of the PBAD promoter (in words) ([2]; even at 1000-fold higher concentration than L-arabinose): does not bind araC, nor activate expression of genes downstream of the PBAD promoter
O=C[C@H](O)[C@@H](O)[C@@H](O)CO [L(+) Ara, L(+)-arabinose]	833.5	835.0	832.7	832.7	939.7	940.0	939.4	939.7	concentration range over which GFPuv expression is linear with dose [2]: 1 to 500 µM; potency [2]: 100 µM; time to maximum expression level of GFP ([2]; whole cell fluorescence): ≤ 3 h
CCCC[C@@H](C=O)NC(=O)[C@H](CC(C)C)NC(=O)[C@H](CC(C)C)NC(C)=O [ALLN] (Ac-Leu-Leu-[Nle]-aldehyde)	–	–	–	–	–	–	–	–	Fluorescence relative to positive control sample #2 set to 700 (20S proteasome; 37 C, 2 hrs, MIDS 60 mG AC field): 25.83; % Normalized Fluorescence (20S proteasome; 1 hr 30 min): 4.975%; % Normalized Fluorescence (20S proteasome; 20 hrs post, room temperature overnight, removed from the field): 2.646%
CC(=O)O[C@H]1C(=O)[C@@]2(C)[C@H]([C@H](OC(=O)c3ccccc3)[C@]3(O)C[C@H](OC(=O)[C@H](O)[C@@H](NC(=O)c4ccccc4)c4ccccc4)C(C)=C1C3(C)C)[C@]1(OC(C)=O)CO[C@@H]1C[C@@H]2O [taxol]	–	–	–	–	–	–	–	–	tumor growth inhibition [3]: 43%
O=C(O)CNCP(=O)(O)O [glyphosphate, N-phosphonomethylglycine]	–	–	–	–	–	–	–	–	stem growth (in words) (pea sprouts): effective in substabtially inhibited stem growth
